Test results from ChEMBL document CHEMBL5506023, “Design, Synthesis, and Evaluation of Dihydropyrimidine Derivatives as Selective PDE1 Inhibitors for the Treatment of Liver Fibrosis” (J Med Chem, 2024).
Active and inactive are the calls of the source. The rule behind the calls is not given here.

What was measured:
[1] = target: High affinity cGMP-specific 3',5'-cyclic phosphodiesterase 9A (Homo sapiens, UniProt O76083); experiment: Inhibition of PDE9A (181 to 506 residues) (unknown origin) using 3H-cGMP as substrate
Chain of High affinity cGMP-specific 3',5'-cyclic phosphodiesterase 9A (O76083 whole entry, the tested form may be a part): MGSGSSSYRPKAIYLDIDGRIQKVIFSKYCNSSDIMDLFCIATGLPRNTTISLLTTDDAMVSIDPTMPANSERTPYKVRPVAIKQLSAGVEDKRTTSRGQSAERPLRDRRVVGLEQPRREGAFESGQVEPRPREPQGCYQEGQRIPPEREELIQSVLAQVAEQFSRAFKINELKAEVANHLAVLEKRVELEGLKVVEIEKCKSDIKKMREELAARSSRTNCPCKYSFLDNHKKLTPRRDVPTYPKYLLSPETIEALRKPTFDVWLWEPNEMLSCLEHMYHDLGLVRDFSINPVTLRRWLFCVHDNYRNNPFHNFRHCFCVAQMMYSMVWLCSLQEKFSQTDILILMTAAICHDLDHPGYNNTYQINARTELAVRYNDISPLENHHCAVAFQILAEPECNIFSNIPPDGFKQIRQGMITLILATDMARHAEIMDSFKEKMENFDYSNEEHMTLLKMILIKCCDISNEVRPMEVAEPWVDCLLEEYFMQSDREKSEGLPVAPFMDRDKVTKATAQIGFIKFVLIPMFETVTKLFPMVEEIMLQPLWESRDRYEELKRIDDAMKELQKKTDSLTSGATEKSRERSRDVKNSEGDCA

[2] = Half life in rat liver microsomes at 1.5 uM; format: ADME, Microsome
[3] = target: cGMP-dependent 3',5'-cyclic phosphodiesterase (Homo sapiens, UniProt O00408); experiment: Inhibition of PDE2A (580 to 919 residues) (unknown origin) using 3H-cGMP as substrate
Chain of cGMP-dependent 3',5'-cyclic phosphodiesterase (O00408 whole entry, the tested form may be a part): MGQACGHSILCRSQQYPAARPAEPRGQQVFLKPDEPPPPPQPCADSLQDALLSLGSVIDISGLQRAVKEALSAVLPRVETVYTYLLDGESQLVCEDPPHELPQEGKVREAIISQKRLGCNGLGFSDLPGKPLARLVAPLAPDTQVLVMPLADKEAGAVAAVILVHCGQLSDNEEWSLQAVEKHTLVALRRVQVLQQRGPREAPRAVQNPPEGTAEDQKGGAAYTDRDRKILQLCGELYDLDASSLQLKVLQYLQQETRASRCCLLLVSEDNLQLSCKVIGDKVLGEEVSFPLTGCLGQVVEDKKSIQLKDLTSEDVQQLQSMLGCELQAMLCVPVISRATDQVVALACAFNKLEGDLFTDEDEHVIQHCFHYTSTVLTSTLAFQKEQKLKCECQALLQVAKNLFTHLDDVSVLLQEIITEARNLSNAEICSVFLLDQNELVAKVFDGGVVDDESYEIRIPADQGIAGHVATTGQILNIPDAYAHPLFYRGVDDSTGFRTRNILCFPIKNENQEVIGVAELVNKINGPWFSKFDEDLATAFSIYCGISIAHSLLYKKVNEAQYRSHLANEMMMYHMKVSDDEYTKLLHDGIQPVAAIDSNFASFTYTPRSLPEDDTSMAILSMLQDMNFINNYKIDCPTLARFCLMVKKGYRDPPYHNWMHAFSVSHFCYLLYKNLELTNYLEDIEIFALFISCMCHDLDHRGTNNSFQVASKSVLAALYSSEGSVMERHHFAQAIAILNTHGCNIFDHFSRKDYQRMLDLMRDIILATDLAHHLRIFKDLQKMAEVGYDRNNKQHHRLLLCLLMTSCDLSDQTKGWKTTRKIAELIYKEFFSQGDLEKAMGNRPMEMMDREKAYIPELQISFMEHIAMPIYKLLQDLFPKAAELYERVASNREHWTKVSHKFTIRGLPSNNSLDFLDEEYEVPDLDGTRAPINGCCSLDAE

[4] = target: T1, cGMP-inhibited 3',5'-cyclic phosphodiesterase 3A (Homo sapiens, UniProt Q14432); experiment: Inhibition of PDE3A (679 to 1087 residues) (unknown origin) using 3H-cAMP as substrate
T1 sequence (Q14432 whole entry, the tested form may be a part): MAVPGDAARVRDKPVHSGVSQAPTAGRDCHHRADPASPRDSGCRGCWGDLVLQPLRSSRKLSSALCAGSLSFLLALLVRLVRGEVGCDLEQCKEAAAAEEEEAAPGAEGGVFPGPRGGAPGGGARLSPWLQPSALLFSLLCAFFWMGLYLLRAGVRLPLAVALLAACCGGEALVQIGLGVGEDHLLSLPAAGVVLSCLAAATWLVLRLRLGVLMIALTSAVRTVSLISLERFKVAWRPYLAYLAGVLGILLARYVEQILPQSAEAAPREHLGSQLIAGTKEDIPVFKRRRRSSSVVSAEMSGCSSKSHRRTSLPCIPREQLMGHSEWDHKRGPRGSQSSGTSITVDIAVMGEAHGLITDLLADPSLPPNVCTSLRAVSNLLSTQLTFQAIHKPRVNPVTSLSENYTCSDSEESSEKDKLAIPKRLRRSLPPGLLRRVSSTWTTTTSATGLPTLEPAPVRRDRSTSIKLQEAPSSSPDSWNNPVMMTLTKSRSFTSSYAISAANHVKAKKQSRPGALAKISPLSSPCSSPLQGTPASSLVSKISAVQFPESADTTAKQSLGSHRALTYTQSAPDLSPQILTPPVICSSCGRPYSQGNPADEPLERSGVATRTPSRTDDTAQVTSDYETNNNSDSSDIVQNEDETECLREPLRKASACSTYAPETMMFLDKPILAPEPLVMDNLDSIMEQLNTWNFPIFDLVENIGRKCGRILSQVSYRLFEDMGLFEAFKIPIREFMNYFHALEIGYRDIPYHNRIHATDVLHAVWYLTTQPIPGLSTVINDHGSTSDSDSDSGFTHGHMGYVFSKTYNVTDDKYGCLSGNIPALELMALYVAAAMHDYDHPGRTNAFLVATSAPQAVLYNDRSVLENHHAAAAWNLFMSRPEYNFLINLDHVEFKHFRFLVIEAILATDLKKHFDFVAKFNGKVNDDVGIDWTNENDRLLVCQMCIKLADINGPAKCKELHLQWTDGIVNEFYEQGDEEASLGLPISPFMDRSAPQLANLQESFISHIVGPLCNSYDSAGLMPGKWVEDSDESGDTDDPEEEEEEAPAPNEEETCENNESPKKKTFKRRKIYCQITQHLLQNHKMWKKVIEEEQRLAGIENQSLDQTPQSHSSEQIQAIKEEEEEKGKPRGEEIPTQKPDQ

[5] = target: 3',5'-cyclic-AMP phosphodiesterase 4D (Homo sapiens, UniProt Q08499); experiment: Inhibition of PDE4D (86 to 413 residues) (unknown origin) using 3H-cAMP as substrate
Chain of 3',5'-cyclic-AMP phosphodiesterase 4D (Q08499 whole entry, the tested form may be a part): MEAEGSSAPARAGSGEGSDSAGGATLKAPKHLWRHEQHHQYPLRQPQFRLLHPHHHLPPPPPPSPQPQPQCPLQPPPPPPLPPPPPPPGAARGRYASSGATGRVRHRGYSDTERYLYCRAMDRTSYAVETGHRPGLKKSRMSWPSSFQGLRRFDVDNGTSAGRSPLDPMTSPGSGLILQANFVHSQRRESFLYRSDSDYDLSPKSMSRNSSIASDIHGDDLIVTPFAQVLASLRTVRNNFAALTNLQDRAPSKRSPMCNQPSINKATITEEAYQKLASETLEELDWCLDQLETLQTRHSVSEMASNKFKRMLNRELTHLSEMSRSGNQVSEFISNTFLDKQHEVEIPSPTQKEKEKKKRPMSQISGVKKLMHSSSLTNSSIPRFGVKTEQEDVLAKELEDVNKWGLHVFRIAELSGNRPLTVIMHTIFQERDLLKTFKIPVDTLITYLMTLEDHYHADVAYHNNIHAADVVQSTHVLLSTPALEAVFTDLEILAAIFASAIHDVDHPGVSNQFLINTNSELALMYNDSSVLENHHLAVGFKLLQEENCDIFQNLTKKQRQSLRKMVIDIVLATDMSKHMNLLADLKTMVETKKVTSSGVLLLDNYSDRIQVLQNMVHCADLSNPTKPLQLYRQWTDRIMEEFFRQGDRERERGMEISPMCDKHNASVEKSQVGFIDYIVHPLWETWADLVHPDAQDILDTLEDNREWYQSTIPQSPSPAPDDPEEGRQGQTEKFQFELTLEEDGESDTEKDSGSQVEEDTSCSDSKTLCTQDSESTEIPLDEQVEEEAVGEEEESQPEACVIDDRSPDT

[6] = target: cGMP-specific 3',5'-cyclic phosphodiesterase (Homo sapiens, UniProt O76074); experiment: Inhibition of PDE5A (535 to 860 residues) (unknown origin) using 3H-cGMP as substrate
[7] = Selectivity index, ratio of IC50 for inhibition of PDE1C2 (147 to 531 residues) (unknown origin) using 3H-cGMP as substrate to IC50 for inhibition of PDE3A (679 to 1087 residues) (unknown origin) using 3H-cAMP as substrate
[8] = Selectivity index, ratio of IC50 for inhibition of PDE1C2 (147 to 531 residues) (unknown origin) using 3H-cGMP as substrate to IC50 for inhibition of PDE5A (535 to 860 residues) (unknown origin) using 3H-cGMP as substrate
[9] = Selectivity index, ratio of IC50 for inhibition of PDE1C2 (147 to 531 residues) (unknown origin) using 3H-cGMP as substrate to IC50 for inhibition of PDE8A (480 to 820 residues) (unknown origin) using 3H-cAMP as substrate
[10] = Selectivity index, ratio of IC50 for inhibition of PDE1C2 (147 to 531 residues) (unknown origin) using 3H-cGMP as substrate to IC50 for inhibition of PDE9A (181 to 506 residues) (unknown origin) using 3H-cGMP as substrate
[11] = Half life in Sprague-Dawley rat at 2.5 mg/kg,iv administration; format: ADME, organism-based; settings: in vivo
[12] = Observed clearance in Sprague-Dawley rat at 2.5 mg/kg,iv administration; format: ADME, organism-based; settings: in vivo
[13] = MRT in Sprague-Dawley rat at 2.5 mg/kg,iv administration; format: ADME, organism-based; settings: in vivo
[14] = target: Voltage-gated inwardly rectifying potassium channel KCNH2 (Homo sapiens, UniProt Q12809); experiment: Inhibition of hERG expressed in CHO cells by automated patch clamp electrophysiology analysis; format: toxicity, cell-based
Cytochrome P450 1A2 = target: T2, Cytochrome P450 1A2 (Homo sapiens, UniProt P05177); experiment: Inhibition of CYP1A2 in human liver microsomes in presence of NADPH; format: ADME, Microsome
T2 sequence (P05177 whole entry): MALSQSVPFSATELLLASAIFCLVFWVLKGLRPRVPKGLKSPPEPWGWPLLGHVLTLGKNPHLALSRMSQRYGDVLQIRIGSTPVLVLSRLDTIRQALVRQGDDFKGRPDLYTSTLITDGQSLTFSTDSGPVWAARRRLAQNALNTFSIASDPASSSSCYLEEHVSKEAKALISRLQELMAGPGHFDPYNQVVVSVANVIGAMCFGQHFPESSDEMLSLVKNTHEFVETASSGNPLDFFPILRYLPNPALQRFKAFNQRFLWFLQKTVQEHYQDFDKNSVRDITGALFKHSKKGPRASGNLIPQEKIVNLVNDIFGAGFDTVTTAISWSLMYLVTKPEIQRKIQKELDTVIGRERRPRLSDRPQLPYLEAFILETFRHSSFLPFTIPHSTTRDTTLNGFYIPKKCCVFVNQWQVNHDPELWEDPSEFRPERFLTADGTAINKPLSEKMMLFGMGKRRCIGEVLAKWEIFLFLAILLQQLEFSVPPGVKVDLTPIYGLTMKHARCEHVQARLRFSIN

Cytochrome P450 2C19 = Cytochrome P450 2C19 (Homo sapiens, UniProt P33261); experiment: Inhibition of CYP2C19 in human liver microsomes in presence of NADPH; format: ADME, Microsome
Chain of Cytochrome P450 2C19 (P33261 whole entry): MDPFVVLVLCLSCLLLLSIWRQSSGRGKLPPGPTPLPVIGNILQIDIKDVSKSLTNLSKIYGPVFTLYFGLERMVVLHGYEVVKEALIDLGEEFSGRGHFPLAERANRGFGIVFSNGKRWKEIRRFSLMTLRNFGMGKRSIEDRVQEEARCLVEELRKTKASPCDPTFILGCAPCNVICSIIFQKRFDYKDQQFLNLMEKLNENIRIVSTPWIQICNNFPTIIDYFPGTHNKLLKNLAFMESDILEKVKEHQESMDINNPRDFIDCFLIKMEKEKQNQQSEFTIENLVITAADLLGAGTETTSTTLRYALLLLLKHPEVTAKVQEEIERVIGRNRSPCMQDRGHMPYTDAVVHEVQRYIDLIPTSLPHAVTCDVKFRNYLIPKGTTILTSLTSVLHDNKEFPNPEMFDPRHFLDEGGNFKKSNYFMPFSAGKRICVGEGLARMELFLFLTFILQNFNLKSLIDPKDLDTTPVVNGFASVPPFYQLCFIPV

Cytochrome P450 3A4 = Cytochrome P450 3A4 (Homo sapiens, UniProt P08684); experiment: Inhibition of CYP3A4-M in human liver microsomes in presence of NADPH; format: ADME, Microsome
Chain of Cytochrome P450 3A4 (P08684 whole entry): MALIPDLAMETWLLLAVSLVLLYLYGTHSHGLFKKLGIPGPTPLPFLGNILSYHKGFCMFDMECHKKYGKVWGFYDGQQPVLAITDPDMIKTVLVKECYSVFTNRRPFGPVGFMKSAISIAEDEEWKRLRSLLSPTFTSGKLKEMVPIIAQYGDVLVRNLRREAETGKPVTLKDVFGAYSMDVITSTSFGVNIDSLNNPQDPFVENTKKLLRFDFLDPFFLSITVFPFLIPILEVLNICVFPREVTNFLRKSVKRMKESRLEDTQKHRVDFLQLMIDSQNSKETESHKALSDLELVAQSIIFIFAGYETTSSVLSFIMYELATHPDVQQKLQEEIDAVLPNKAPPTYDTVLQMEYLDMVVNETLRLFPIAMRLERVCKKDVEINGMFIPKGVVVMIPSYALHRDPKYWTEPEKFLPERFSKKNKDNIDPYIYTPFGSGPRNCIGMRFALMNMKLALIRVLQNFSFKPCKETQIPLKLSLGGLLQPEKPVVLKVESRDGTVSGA

[15] = Acute toxicity in Kunming mouse assessed as lethal dose at po administration for 14 days; format: organism-based; settings: in vivo, 336 h, time 14 day
Rattus norvegicus [16] = experiment: Antifibrotic activity against bile duct ligation induced Sprague-Dawley rat liver fibrosis model assessed as reduction in AST level at 2.5 mg/kg,ip administrated once daily for 21 days; format: functional, organism-based; settings: time 21.0 day
Rattus norvegicus [17] = experiment: Antifibrotic activity against bile duct ligation induced Sprague-Dawley rat liver fibrosis model assessed as reduction in ALT level at 2.5 mg/kg,ip administrated once daily for 21 days; format: functional, organism-based; settings: time 21.0 day
Rattus norvegicus [18] = experiment: Antifibrotic activity against bile duct ligation induced Sprague-Dawley rat liver fibrosis model assessed as reduction in fibrotic lesion at 2.5 mg/kg,ip administrated once daily for 21 days by hematoxylin and eosin staining based analysis; format: functional, organism-based; settings: time 21.0 day
Rattus norvegicus [19] = experiment: Antifibrotic activity against bile duct ligation induced Sprague-Dawley rat liver fibrosis model assessed as reduction in collagen deposition at 2.5 mg/kg,ip administrated once daily for 21 days by Masson's trichome staining based analysis; format: functional, organism-based; settings: time 21.0 day
Rattus norvegicus [20] = experiment: Antifibrotic activity against bile duct ligation induced Sprague-Dawley rat liver fibrosis model assessed as reduction in alpha-smooth muscle actin level in liver at 2.5 mg/kg,ip administrated once daily for 21 days by immunofluorescence staining based analysis; format: functional, organism-based; settings: time 21.0 day
Rattus norvegicus [21] = experiment: Antifibrotic activity against bile duct ligation induced Sprague-Dawley rat liver fibrosis model assessed as downregulation of alpha-SMA expression in liver at 2.5 mg/kg,ip administrated once daily for 21 days by Western blotting analysis; format: functional, organism-based; settings: time 21.0 day
Rattus norvegicus [22] = experiment: Antifibrotic activity against bile duct ligation induced Sprague-Dawley rat liver fibrosis model assessed as increase in cAMP level in liver at 2.5 mg/kg,ip administrated once daily for 21 days by ELISA; format: functional, organism-based; settings: time 21.0 day
Rattus norvegicus [23] = experiment: Antifibrotic activity against bile duct ligation induced Sprague-Dawley rat liver fibrosis model assessed as increase in cGMP level in liver at 2.5 mg/kg,ip administrated once daily for 21 days by ELISA; format: functional, organism-based; settings: time 21.0 day
LX-2 [24] = experiment: Antifibrotic activity against TGF-beta induced human LX-2 cell activation assessed as downregulation of collagen-I expression incubated for 48 hrs by Western blotting analysis; format: functional, cell-based
LX-2 [25] = experiment: Antifibrotic activity against TGF-beta induced human LX-2 cell activation assessed as downregulation of alpha-SMA expression incubated for 48 hrs by Western blotting analysis; format: functional, cell-based
LX-2 [26] = experiment: Antifibrotic activity against TGF-beta induced human LX-2 cell activation assessed as reduction in cell proliferation at 2.5 to 10 uM incubated for 48 hrs by Edu staining based analysis; format: functional; settings: dose 2.5-10 µM
[27] = target: T1, cGMP-inhibited 3',5'-cyclic phosphodiesterase 3A; experiment: Inhibition of PDE3A (679 to 1087 residues) (unknown origin) using 3H-cAMP as substrate at 5000 nM relative to control

CC1=C(C(=O)OCC2CCCCC2)C(c2ccc(OC(F)F)c(OCC3CC3)c2)N(C(=O)SCc2ccccc2)C(=O)N1 (stereo not given)
IC50 [1]: 2100 nM | half-life at 1.5 µM [2]: 14.1 min | IC50 [3]: 3.54 µM | IC50 [4]: > 5 µM | IC50 [5]: 2050 nM | IC50 [6]: 1680 nM | Ratio IC50 [7]: > 500 | Ratio IC50 [8]: 168 | Ratio IC50 [9]: 176 | Ratio IC50 [10]: 210 | half-life [11]: 451 min | clearance [12]: 6.56 mL/min/kg | MRT [13]: 1.77 h | IC50 [14]: > 40 µM | IC50 (Cytochrome P450 1A2): > 25 µM | IC50 (Cytochrome P450 2C19): > 25 µM | IC50 (Cytochrome P450 3A4): > 25 µM | LD [15]: > 1.5 g/kg | Activity (Rattus norvegicus [16]): Active | Activity (Rattus norvegicus [17]): Active | Activity (Rattus norvegicus [18]): Active | Activity (Rattus norvegicus [19]): Active | Activity (Rattus norvegicus [20]): Active | Activity (Rattus norvegicus [21]): Active | Activity (Rattus norvegicus [22]): Active | Activity (Rattus norvegicus [23]): inactive | Activity (LX-2 [24]): Dose-Dependent Effect | Activity (LX-2 [25]): Dose-Dependent Effect | Activity (LX-2 [26]): Active | inhibition [27]: < 50%
